The nature of data set [1]: RAL depletion kinetics by drug in rod outer segment preparation. It counts as biochemical, bovine. The settings on record: for Kapp, apparent equilibrium constant of RAL depletion by drug: rod outer segment prep containing 64 μM opsin at 37° C.; for kapp, apparent second order rate constant of RAL depletion by drug / ΔGapp, apparent free energy change of RAL depletion by drug: rod outer segment preparation containing 64 μM opsin at 37° C.; for ΔGapp, apparent free energy change of RAL depletion by drug: ΔGapp=−RT ln Kapp. The source says: The parameters associated with the analysis of RAL depletion kinetics are as follows:
[drawing 47] kapp: apparent second order rate constant of RAL depletion by drug. Kapp: apparent equilibrium constant of RAL depletion by drug.
[formula] ΔGapp: apparent free energy change of RAL depletion by drug. ΔGapp=−RT ln Kapp (2) KT: equilibrium constant of tautomerism from imine (ring opened) to oxaminal (ring closed).
Determination of kapp, Kapp and ΔGapp in rod outer segments. Frozen bovine rod outer segment preparation (64 μM of opsin) was thawed and vortexed thoroughly. A 200 μL aliquot of this sample was transferred into a 0.5 mL Eppendorf tube. To it was added 10 μL of 20 mM drug stock solution in EtOH, and the mixture vortexed for 1 min. The tube was incubated at 37° C. in a Thermo Scientific microprocessor controlled 280 series water bath for 3 min before 5 μL freshly prepared 2.4 mM RAL solution in EtOH was added (the nominal starting concentrations of drug and RAL are 1.00 mM and 60 μM, respectively). After vortexing for 1 min, the tube was incubated at 37° C. and aliquots of the reaction mixture (25 μL each) were taken periodically and added onto 10 mg of solid NaBH4 in a 0.5 mL Eppendorf tube. To the latter was added 400 μL of 2:1 (v/v) EtOH/HOAc. The reduction mixture was vortexed for 1 min and centrifuged. The supernatant was separated, and analyzed by HPLC using a standard HPLC method: • Instrument: HPLC-PE-97 • Column: Waters Sunfire C18 3.5 μm/4.6×100 mm column • Solvent A: 0.05% HCOOH/95% HPLC grade water/5% HPLC grade MeCN • Solvent B: 0.05% HCOOH HPLC grade MeCN • Pump program: 0-3 min 5-100% B, 3-30 min 100% B, 31-32 min 100%-5% B, 32-35 min 5% B • Flow rate: 1 mL/min • Detector wavelengths: 329 and 250 nm • Reference wavelength: 400 nm • Injection volume: 50 μL.
The RAL depletion percentages were calculated by normalization of retinol (ROL) and RAL-drug peak integrals, which were then plotted against reaction time. Least squares fit of the RAL depletion plot according to pseudo-first order kinetics yielded observed first order rate constant kobsd, and kapp is calculated according to kobsd=kapp[drug]. Kapp was calculated from the equilibrium concentrations of free RAL, free drug and RAL-drug according to equation (1). ΔGapp was calculated according to equation (2).

Data set [2] is described as follows: Imine/oxaminal tautomerism of RAL-drug adducts by 1H NMR in CDCl3. The settings on record: in CDCl3 at 25° C.; for ΔGT, free energy change of tautomerism from imine to oxaminal (ring closed): ΔGT=−RT ln KT. It counts as physicochemical. How it is done: [formula] ΔGT: free energy change of tautomerism from imine to oxaminal. ΔGT=−RT ln KT (4) General Methods.
Preparation of the adducts RAL-1, RAL-2 and RAL-3 of RAL with Compounds 1, 2 and 3. Mixtures of 25.6 mg (0.09 mmol) RAL and 0.11 mmol of either Compound 1 or 2, or Compound 3 (2-[3-amino-6-chloroquinolin-2-yl]propan-2-ol, wherein the carbinol has no peri-interaction), in 1 mL dry benzene were stirred in the dark under argon at room temperature for 1 hr. The mixtures were evaporated to dryness and the residues evaporated twice from 2 mL benzene. The residues were dissolved in 1 mL benzene, allowed to stand 1 hr at room temperature and evaporated to dryness. The residues were evaporated from benzene (3×2 mL), redesolved in 0.5 mL dry benzene, and the solutions loaded on silica gel columns. The columns were first eluted with hexanes, and further eluted with 50:1 (v/v) hexanes-ethyl acetate. The fractions containing the adducts were evaporated to dryness to provide pure RAL-1, RAL-2 and RAL-3. The adducts were dissolved in 0.8 mL dry CDCl3, and the ratio of imine and oxaminal tautomers were determined from their ^1H NMR spectra. The values of KT and ΔGT were calculated according to equations (3) and (4).

`CC(C)(O)c1c(N)cnc2ccc(Cl)cc12` [Compound 2, 2-(3-amino-6-chloroquinolin-4-yl)propan-2-ol]: in data set [1], the “Kapp, apparent equilibrium constant of RAL depletion by drug” value is recorded as >2 × 10^7; the “kapp, apparent second order rate constant of RAL depletion by drug” value worked out at 0.5278 M⁻¹ s⁻¹; the “ΔGapp, apparent free energy change of RAL depletion by drug” value was less than -10 kcal/mol. Further, in data set [2], the “KT, equilibrium constant of tautomerism from imine to oxaminal (ring closed)” value is recorded as >>1000 and the “ΔGT, free energy change of tautomerism from imine to oxaminal (ring closed)” value is <<−4 kcal/mol.
Taken in the same sequence, the figures for `CC(C)(O)c1nc2ccc(Cl)cc2cc1N` [Compound 3, 2-[3-amino-6-chloroquinolin-2-yl]propan-2-ol, reference compound] were 1.55 × 10^5, 0.9917 M⁻¹ s⁻¹, -7.4 kcal/mol, 1.3 and -0.155 kcal/mol.
Taken in the same sequence, the figures for `CC(C)(O)c1c(N)cnc2ccc(Cl)c(F)c12` [Compound 1, 2-(3-amino-6-chloro-5-fluoroquinolin-4-yl)propan-2-ol] were >2 × 10^7, 0.8556 M⁻¹ s⁻¹, less than -10 kcal/mol, >>1000 and <<−4 kcal/mol.

(Values after patent publication US9604997B2, “Peri-carbinols” (ALDEXA THERAPEUTICS, INC., priority 2012, dated 2017).)
